For 35 compounds, Ki and IC50 results are on record in ChEMBL document CHEMBL1142025 (Bioorg Med Chem Lett, 2005).

Assay [1] concerns the target T1, Human immunodeficiency virus type 1 protease (Human immunodeficiency virus 1, UniProt Q72874). The assay is described as follows: Binding affinity against human immunodeficiency virus (HIV) protease. The assay is classed as single protein, human immuno deficiency virus protease.
For assay [2], the target named is T2, Renin (Homo sapiens, UniProt P00797).
T2 sequence (P00797 whole entry): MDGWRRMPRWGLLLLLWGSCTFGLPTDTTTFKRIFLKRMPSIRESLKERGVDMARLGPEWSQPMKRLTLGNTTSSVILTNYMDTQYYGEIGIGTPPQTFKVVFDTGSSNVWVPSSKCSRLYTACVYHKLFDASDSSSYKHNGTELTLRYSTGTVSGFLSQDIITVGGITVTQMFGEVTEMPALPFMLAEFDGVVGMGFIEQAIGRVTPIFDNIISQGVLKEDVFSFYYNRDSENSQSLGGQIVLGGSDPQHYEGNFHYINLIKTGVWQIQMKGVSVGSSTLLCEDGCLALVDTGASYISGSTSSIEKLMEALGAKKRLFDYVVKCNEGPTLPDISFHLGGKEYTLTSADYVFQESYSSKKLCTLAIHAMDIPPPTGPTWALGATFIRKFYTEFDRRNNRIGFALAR
As to the kind of experiment: Inhibitory concentration against renin.

For assay [3], the target named is Pepsin A (Homo sapiens, UniProt P0DJD9). As to the kind of experiment: Inhibitory concentration against pepsin.
Assay [4] can be described thus: Inhibitory concentration against cathepsin.
The target in assay [5] is T1, Human immunodeficiency virus type 1 protease. The assay is described as follows: Inhibitory concentration against human immunodeficiency virus (HIV) protease. Also noted: species or system human immuno deficiency virus protease.

Pepsin A, sequence (P0DJD9 whole entry): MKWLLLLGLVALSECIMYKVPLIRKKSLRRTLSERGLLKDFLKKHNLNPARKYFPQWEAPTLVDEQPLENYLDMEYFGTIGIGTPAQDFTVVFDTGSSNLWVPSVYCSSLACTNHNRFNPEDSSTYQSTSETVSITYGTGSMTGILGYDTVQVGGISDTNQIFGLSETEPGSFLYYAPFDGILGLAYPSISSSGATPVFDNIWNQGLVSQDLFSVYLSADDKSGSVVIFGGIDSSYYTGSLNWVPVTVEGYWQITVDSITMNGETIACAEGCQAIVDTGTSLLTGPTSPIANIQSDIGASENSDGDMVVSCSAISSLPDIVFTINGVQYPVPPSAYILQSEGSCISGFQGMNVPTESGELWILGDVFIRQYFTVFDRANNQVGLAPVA

Regarding `Cc1ccc(S(=O)(=O)N(CC(C)C)[C@@H](CCNC(=O)OCC2c3ccccc3-c3ccccc32)C(=O)O)cc1`, the inhibitory constant (Ki) in assay [1] is above 250 nM.

For the compound `Cc1ccc(S(=O)(=O)N(CC(C)C)[C@@H](CCCCNC(=O)OC2c3ccccc3-c3ccccc32)c2nnn[nH]2)cc1`, the inhibitory constant (Ki) in assay [1] was above 300 nM.

In assay [1], `Cc1ccc(S(=O)(=O)N(CC(C)C)[C@@H](CCCCNC(=O)OC2c3ccccc3-c3ccccc32)C(=N)N)cc1` showed an inhibitory constant (Ki) of 280 nM.

For `CC(C)CN([C@@H](CCCCNC(=O)OCC1c2ccccc2-c2ccccc21)C(=O)O)S(=O)(=O)c1ccc([N+](=O)[O-])cc1`, the Ki in assay [1] came out at 7.2 nM.

In turn, `COC(=O)[C@H](CCCCNC(=O)OC1c2ccccc2-c2ccccc21)N(CC(C)C)S(=O)(=O)c1ccc(C)cc1` yielded an inhibition constant Ki in assay [1] above 300 nM.

In assay [1], `Cc1ccc(S(=O)(=O)N[C@@H](CCCCNC(=O)OC(C)(C)C)C(=O)O)cc1` returned an inhibition constant (Ki) above 100000 nM.

`CC(C)CN([C@@H](CCCCNC(=O)OCC1c2ccccc2-c2ccccc21)C(=O)O)S(=O)(=O)c1cccc2ccccc12`: the affinity in assay [1], expressed as Ki, was 54.9 nM.

In assay [1], `Cc1ccc(S(=O)(=O)N(CC(C)C)[C@@H](CCCCNC(=O)OC2c3ccccc3-c3ccccc32)C(=N)S)cc1` gave a Ki of 127 nM.

For the compound `CCC(CC)CN([C@@H](CCCCNC(=O)OCC1c2ccccc2-c2ccccc21)C(=O)O)S(=O)(=O)c1ccc(C)cc1`, the inhibition constant Ki in assay [1] amounted to 15.2 nM.

The compound `CCC(C)CN([C@@H](CCCCNC(=O)OCC1c2ccccc2-c2ccccc21)C(=O)O)S(=O)(=O)c1ccc(C)cc1` (stereo partly drawn) showed a Ki in assay [1] of 13.5 nM.

For the compound `Cc1ccc(S(=O)(=O)N(CC(C)C)[C@@H](CCCCNC(=O)OC2c3ccccc3-c3ccccc32)C(N)=O)cc1`, the inhibitory constant (Ki) in assay [1] is 107 nM.

`Cc1ccc(S(=O)(=O)N(CC(C)C)[C@@H](CCCCNC(=O)OC2c3ccccc3-c3ccccc32)C(=O)NN)cc1`: the Ki in assay [1] amounted to 254 nM.

The compound `Cc1ccc(S(=O)(=O)NCCC[C@H](NC(=O)OCC2c3ccccc3-c3ccccc32)C(=O)O)cc1` showed an inhibition constant (Ki) in assay [1] of 26200 nM.

Take `CC(C)CN(C(=O)c1ccccc1)[C@@H](CCCCNC(=O)OCC1c2ccccc2-c2ccccc21)C(=O)O`: the inhibition constant Ki in assay [1] was above 300 nM.

`Cc1ccc(S(=O)(=O)N(CC2CCCC2)[C@@H](CCCCNC(=O)OCC2c3ccccc3-c3ccccc32)C(=O)O)cc1` yielded a Ki in assay [1] of 5.2 nM.

`Cc1ccc(S(=O)(=O)N(CC(C)C)[C@@H](CCCCNC(=O)CC2c3ccccc3-c3ccccc32)C(=O)O)cc1` showed a Ki in assay [1] of 89.7 nM.

Turning to `Cc1ccc(S(=O)(=O)N(CC(C)C)[C@@H](CCCCNC(=O)OC(C)(C)C)C(=O)O)cc1`, the inhibition constant (Ki) in assay [1] is above 250 nM.

Regarding `Cc1ccc(S(=O)(=O)N(CC(C)C)[C@@H](CCCCNC(=O)OC2c3ccccc3-c3ccccc32)C(=O)O)cc1`, the Ki in assay [1] amounted to 105 nM.

In turn, `CC(C)CN([C@@H](CCCCNC(=O)OCC1c2ccccc2-c2ccccc21)C(=O)O)S(=O)(=O)c1ccc(F)cc1` returned an inhibition constant Ki in assay [1] of 17.4 nM.

The compound `Cc1ccc(S(=O)(=O)N(CC(C)C)[C@@H](CNC(=O)OCC2c3ccccc3-c3ccccc32)C(=O)O)cc1` showed a Ki in assay [1] above 250 nM.

As to `CC(C)(C)OC(=O)NCCCC[C@H](NC(=O)OCc1ccccc1)C(=O)O`, in assay [1], the Ki is above 100000 nM.

With `Cc1ccc(S(=O)(=O)N(CC(C)C)[C@@H](CCCCNC(=O)OCc2ccccc2)C(=O)O)cc1`, the inhibitory constant (Ki) in assay [1] was above 250 nM.

`Cc1ccc(S(=O)(=O)N(CC(C)C)[C@H](C=O)CCCCNC(=O)OC2c3ccccc3-c3ccccc32)cc1`: in assay [1], the inhibition constant (Ki) was above 300 nM.

In the case of `CC(C)CN([C@@H](CCCCNC(=O)OCC1c2ccccc2-c2ccccc21)C(=O)O)S(=O)(=O)c1cccs1`, the Ki in assay [1] is 42 nM.

Turning to `Cc1ccc(S(=O)(=O)N(CCCC[C@H](NC(=O)OCC2c3ccccc3-c3ccccc32)C(=O)O)CC(C)C)cc1`, affinity in assay [1] was put at a Ki of 2000 nM.

Take `Cc1ccc(S(=O)(=O)N(CC(C)C)[C@@H](CCCCNC(=O)OCC2c3ccccc3-c3ccccc32)C(=O)O)cc1`: the concentration for half-maximal inhibition (IC50) in assay [2] stood at 6500 nM; in assay [3], 5400 nM; in assay [4] it was 15600 nM; in assay [5], 5 nM. This compound also had an inhibitory constant (Ki) in assay [1] of 5 nM.

`Cc1ccc(S(=O)(=O)N(CC(C)C)[C@H](CN)CCCCNC(=O)OC2c3ccccc3-c3ccccc32)cc1` had a Ki in assay [1] above 300 nM.

`Cc1ccc(S(=O)(=O)N(CC(C)C)[C@@H](CCCCCNC(=O)OCC2c3ccccc3-c3ccccc32)C(=O)O)cc1` displayed a Ki in assay [1] above 250 nM.

With `Cc1ccc(S(=O)(=O)N(Cc2ccccc2)[C@@H](CCCCNC(=O)OCC2c3ccccc3-c3ccccc32)C(=O)O)cc1`, in assay [1], the Ki was determined as 19.6 nM.

Consider `CC(C)CN([C@@H](CCCCNC(=O)OCC1c2ccccc2-c2ccccc21)C(=O)O)S(=O)(=O)c1ccc(C(C)(C)C)cc1`, for which the affinity in assay [1] corresponds to a Ki of 257 nM.

The compound `Cc1ccc(S(=O)(=O)N(CC2CC2)[C@@H](CCCCNC(=O)OCC2c3ccccc3-c3ccccc32)C(=O)O)cc1` came in with a Ki in assay [1] of 3.9 nM.

Compound `Cc1ccc(S(=O)(=O)N(CC(C)C)[C@@H](CCCCNC(=O)OC2c3ccccc3-c3ccccc32)C(=O)NO)cc1` displayed a Ki in assay [1] of 245 nM.

In assay [1], `Cc1ccc(S(=O)(=O)N(CC(C)C)[C@@H](CCCNC(=O)OCC2c3ccccc3-c3ccccc32)C(=O)O)cc1` returned an inhibition constant Ki of 180 nM.

Turning to `CC(C)CN([C@@H](CCCCNC(=O)OCC1c2ccccc2-c2ccccc21)C(=O)O)S(=O)(=O)c1ccc(N)cc1`, the IC50 in assay [2] was found to be 5200 nM; in assay [3], 4100 nM; in assay [4], 10300 nM; in assay [5], 2.1 nM. The same compound returned a Ki in assay [1] of 2.1 nM.

Turning to `Cc1ccc(S(=O)(=O)N(CC(C)C)[C@H](CO)CCCCNC(=O)OC2c3ccccc3-c3ccccc32)cc1`, in assay [1], the Ki turned out to be 107 nM.

The Ki is the equilibrium dissociation constant of an inhibitor or competing ligand from its target. What is called IC50 is the concentration needed to halve the response being measured. Read a low IC50 as higher potency.
